Literature values as cited in US20090208944A1 (priority 2005, published 2009).
Each block holds one compound with its values, some of them ahead of it.

Biological target: CYP2D6 enzyme system (Homo sapiens, UniProt P10635)
Settings: classification from literature

Chain of CYP2D6 enzyme system (P10635 whole entry): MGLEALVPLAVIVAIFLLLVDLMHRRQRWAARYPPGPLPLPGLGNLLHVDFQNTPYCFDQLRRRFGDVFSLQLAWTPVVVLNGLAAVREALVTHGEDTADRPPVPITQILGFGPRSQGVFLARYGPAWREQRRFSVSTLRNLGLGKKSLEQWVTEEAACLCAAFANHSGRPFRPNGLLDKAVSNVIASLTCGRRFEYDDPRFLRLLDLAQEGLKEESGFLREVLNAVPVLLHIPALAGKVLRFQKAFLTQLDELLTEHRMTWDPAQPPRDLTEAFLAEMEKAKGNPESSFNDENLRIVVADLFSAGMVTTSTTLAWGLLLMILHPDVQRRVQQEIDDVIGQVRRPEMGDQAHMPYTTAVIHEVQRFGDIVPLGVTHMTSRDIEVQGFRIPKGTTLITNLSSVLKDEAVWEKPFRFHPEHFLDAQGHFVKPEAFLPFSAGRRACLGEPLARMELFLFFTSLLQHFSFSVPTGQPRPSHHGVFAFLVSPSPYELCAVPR

SMILES: CN/C(=N/CCSCc1nc[nH]c1C)NC#N [cimetidine]
potency as inhibitor of the CYP2D6 enzyme system: Moderate

SMILES: Fc1ccc([C@@H]2CCNC[C@H]2COc2ccc3c(c2)OCO3)cc1 [paroxetine]
potency as inhibitor of the CYP2D6 enzyme system: Potent

SMILES: O=C(CCCN1CCC(O)(c2ccc(Cl)cc2)CC1)c1ccc(F)cc1 [haloperidol]
potency as inhibitor of the CYP2D6 enzyme system: Moderate

The next lines start with the values.

potency as inhibitor of the CYP2D6 enzyme system: Moderate
SMILES: CN[C@H]1CC[C@@H](c2ccc(Cl)c(Cl)c2)c2ccccc21 [sertraline]

potency as inhibitor of the CYP2D6 enzyme system: Moderate
SMILES: CN(C)CCC=C1c2ccccc2COc2ccccc21 [doxepin]
